Measurements taken from patent US20230016526A1, “SYSTEM AND METHODS FOR MANIPULATION OF THE ORAL MICROBIOME IN MAMMALS” (ANIMAL MICROBIOME ANALYTICS, INC. (D/B/A ANIMALBIOME), priority 2019, published 2023).

System: cat's oral microbiome
Assay: Microbial diversity metrics in sequential oral samples of a cat after a dental procedure with cefovecin sodium
Format: in vivo
Settings: tooth extraction and cefovecin sodium; for PD Evenness: Before 0.53; for HA Evenness: Before 0.62; for PD/HA Evenness: Before 0.85; for PD/HA Diversity: Before 1.21; for PD/HA Richness: Before 1.32; for HA Diversity: Before 1.87; for PD Diversity: Before 2.26; for Pathobiont Richness: Before 3; for HA Richness: Before 31; for PD Richness: Before 41
Procedure: Alpha diversity metrics (Amplified Sequence Variant Richness, Shannon Diversity, and Pielou's Evenness) were calculated for a subset of periodontal disease-associated bacteria (PD) and a subset of health-associated bacteria (HA). The range for PD richness in healthy cats and dogs is 0-39. The range for health richness in healthy cats and dogs is 20-50. For comparison, oral health of each individual was also assessed by examination by a veterinary technician and or a veterinarian and observations of oral health and breath were record as shown in the table below.
Microbial diversity metrics were assessed for three sequential samples collected from a cat with advanced periodontal disease with tooth resorption prior to a dental cleaning to remove calculus, tooth extraction, and treatment with cefovecin sodium, a broad-spectrum antibiotic. Microbial diversity measures for samples collected from a cat with advanced periodontal disease with tooth resorption prior to a dental procedure that included cleaning to remove calculus, tooth extraction, and antibiotic treatment. Samples were collected by swabbing the area between the gingival sulcus and the gingival margin and were sequenced using the Illumina MiniSeq. […] At five weeks after, PD richness had increased but PD diversity had decreased, likely driven by a reduction in evenness. At five weeks after, for HA microbes, there were increases in richness, diversity, and evenness, and the PD/HA ratios for richness and diversity had decreased. Thus, this cat's oral microbiome began to show signs of recovery in a sample collected five weeks later.

[1] = Five weeks after dental cleaning
[2] = Two weeks after dental cleaning

Structure (SMILES): CO/N=C(/C(=O)N[C@@H]1C(=O)N2C(C(=O)[O-])=C([C@@H]3CCCO3)CS[C@H]12)c1csc(N)n1.[Na+] [cefovecin sodium]
- PD Evenness [1]: 0.62
- HA Evenness [1]: 0.58
- PD/HA Evenness [1]: 1.07
- PD/HA Diversity [1]: 1.15
- PD/HA Richness [1]: 0.92
- HA Diversity [1]: 1.62
- PD Diversity [1]: 1.86
- Pathobiont Richness [1]: 2
- HA Richness [1]: 25
- PD Richness [1]: 23
- PD Evenness [2]: 0.74
- HA Evenness [2]: 0.43
- PD/HA Evenness [2]: 1.72
- PD/HA Diversity [2]: 1.95
- PD/HA Richness [2]: 1.46
- HA Diversity [2]: 1.11
- PD Diversity [2]: 2.17
- Pathobiont Richness [2]: 2
- HA Richness [2]: 13
- PD Richness [2]: 19
